The results in this text go back to patent US6667325B1, “Substituted pyrazole compounds” (Teikoku Hormone Mfg. Co., Ltd., priority 1999, dated 2003).

Consider `COc1ccc(CN(C)C(=O)c2c(-c3ccncc3)c(-c3ccc(F)cc3)nn2C)cc1` [Example 79, 3-(4-Fluorophenyl)-1-methyl-5-(N-methyl-4-methoxybenzylaminocarbonyl)-4-(4-pyridyl)pyrazole], for which the melting point lay within 150.1 to 152.6 °C.

In turn, `Fc1ccc(-c2n[nH]c(CCCc3ccccc3)c2-c2ccncc2)cc1` [Example 31, 3(5)-(4-Fluorophenyl)-5(3)-(3-phenylpropyl)-4-(4-pyridyl)pyrazole] gave a melting point of 155.5 to 156.5 °C. The figure for `CC(OCc1ccccc1)c1[nH]nc(-c2ccc(F)cc2)c1-c1ccncc1` (stereo not drawn) [Example 83, 5(3)-[1-(Benzyloxy)ethyl]-3(5)-(4-fluorophenyl)-4-(4-pyridyl)pyrazole] is 169.2 to 173.5 °C; for `CCN(Cc1ccccc1)C(=O)c1c(-c2ccncc2)c(-c2ccc(F)cc2)nn1CC` [Example 76, 1-Ethyl-5-(N-ethylbenzylaminocarbonyl)-3-(4-fluorophenyl)-4-(4-pyridyl)pyrazole] it is 114.9 to 116.7 °C; for `Cn1nc(-c2ccc(F)cc2)c(-c2ccncc2)c1C(O)CCc1ccccc1` (stereo not drawn) [Example 15, 3-(4-Fluorophenyl)-5-(1-hydroxy-3-phenylpropyl)-1-methyl-4-(4-pyridyl)pyrazole] it is 62 to 65 °C. `Fc1ccc(-c2n[nH]c(CCCc3ccccn3)c2-c2ccncc2)cc1` [Example 40, 3(5)-(4-Fluorophenyl)-4-(4-pyridyl)-5(3)-[3-(2-pyridyl)propyl]pyrazole] registered a melting point of 143 to 144.5 °C. The figure for `COc1ccc(CNC(=O)c2c(-c3ccncc3)c(-c3ccc(F)cc3)nn2C)cc1` [Example 69, 3-(4-Fluorophenyl)-5-(4-methoxybenzylaminocarbonyl)-1-methyl-4-(4-pyridyl)pyrazole] is 162.3 to 164.8 °C; for `Cn1nc(-c2ccc(F)cc2)c(-c2ccncc2)c1CC(=O)Cc1ccccc1` [Example 87, 3-(4-Fluorophenyl)-1-methyl-5-(2-oxo-3-phenylpropyl)-4-(4-pyridyl)pyrazole] it is 148.1 to 151 °C.

In turn, `Cn1nc(-c2ccc(F)cc2)c(-c2ccncc2)c1CCCc1ccc([N+](=O)[O-])cc1` [Example 56, 3-(4-Fluorophenyl)-1-methyl-5-[3-(4-nitrophenyl)propyl]-4-(4-pyridyl)pyrazole] showed a melting point of 129.1 to 131.8 °C.

`CCN(Cc1ccccc1)C(=O)c1[nH]nc(-c2ccc(F)cc2)c1-c1ccncc1` [Example 74, 5(3)-(N-Ethylbenzylaminocarbonyl)-3(5)-(4-fluorophenyl)-4-(4-pyridyl)pyrazole]: the melting point fell in the range of 202.9 to 204.6 °C. The compound `Fc1ccc(-c2n[nH]c(COCc3ccccc3)c2-c2ccncc2)cc1` [Example 82, 5(3)-(Benzyloxymethyl)-3(5)-(4-fluorophenyl)-4-(4-pyridyl)pyrazole] registered a melting point of 177.6 to 180.2 °C. The same measure for `CCn1nc(-c2ccc(F)cc2)c(-c2ccncc2)c1C(=O)N(C)Cc1ccccc1` [Example 75, 1-Ethyl-5-(N-methylbenzylaminocarbonyl)-3-(4-fluorophenyl)-4-(4-pyridyl)pyrazole]: 148 to 149.3 °C; for `Fc1ccc(-c2n[nH]c(C=CCc3cccnc3)c2-c2ccncc2)cc1` [Example 26, 3(5)-(4-Fluorophenyl)-4-(4-pyridyl)-5(3)-[3-(3-pyridyl)-1-propenyl]pyrazole]: 187 to 188 °C.

The compound `CC(=Cc1[nH]nc(-c2ccc(F)cc2)c1-c1ccncc1)Cc1cccnc1` [Example 27, 3(5)-(4-Fluorophenyl)-5(3)-[2-methyl-3-(3-pyridyl)-1-propenyl]-4-(4-pyridyl)pyrazole] showed a melting point of 215.5 to 217.5 °C. The same measure for `O=C(Cc1ccccc1)Cc1[nH]nc(-c2ccc(F)cc2)c1-c1ccncc1` [Example 86, 3(5)-(4-Fluorophenyl)-5(3)-(2-oxo-3-phenylpropyl)-4-(4-pyridyl)pyrazole]: 187.7 to 193.5 °C; for `Fc1ccc(-c2n[nH]c(CCCc3cccnc3)c2-c2ccncc2)cc1` [Example 43, 3(5)-(4-Fluorophenyl)-4-(4-pyridyl)-5(3)-[3-(3-pyridyl)propyl]pyrazole]: 207 to 210 °C; for `CN(Cc1ccccc1)C(=O)c1c(-c2ccncc2)c(-c2ccc(F)cc2)nn1CCO` [Example 81, 3-(4-Fluorophenyl)-1-(2-hydroxyethyl)-5-(N-methylbenzylaminocarbonyl)-4-(4-pyridyl)pyrazole]: 135.9 to 138.1 °C. As to `CN(Cc1ccccc1)C(=O)c1c(-c2ccncc2)c(-c2ccc(F)cc2)nn1C` [Example 77, 3-(4-Fluorophenyl)-1-methyl-5-(N-methylbenzylaminocarbonyl)-4-(4-pyridyl)pyrazole], the melting point was 149.1 to 150.2 °C. `Cn1nc(-c2ccc(F)cc2)c(-c2ccncc2)c1CCCc1ccc(N)cc1` [Example 57, 5-[3-(4-Aminophenyl)propyl]-3-(4-fluorophenyl)-1-methyl-4-(4-pyridyl)pyrazole] displayed a melting point of 80.5 to 81.1 °C. As to `Cn1nc(-c2ccc(F)cc2)c(-c2ccncc2)c1CCCc1ccccc1` [Example 58, 3-(4-Fluorophenyl)-1-methyl-5-(3-phenylpropyl)-4-(4-pyridyl)pyrazole], the melting point was in the range of 83 to 87 °C. On to `Fc1ccc(-c2n[nH]c(CCCn3cccn3)c2-c2ccncc2)cc1` [Example 55, 3(5)-(4-Fluorophenyl)-5(3)-[3-(1-pyrazolyl)propyl]-4-(4-pyridyl)pyrazole], for which the melting point lay in the range of 144.5 to 146.5 °C.

`CCn1nc(-c2ccc(F)cc2)c(-c2ccncc2)c1C(=O)N(C)Cc1ccccn1` [Example 80, 1-Ethyl-3-(4-fluorophenyl)-5-(N-methyl-2-pyridylmethylaminocarbonyl)-4-(4-pyridyl)pyrazole] yielded a melting point of 144.4 to 146.8 °C. The figure for `Cn1nc(-c2ccc(F)cc2)c(-c2ccncc2)c1C=CCc1ccccc1` [Example 29, 3-(4-Fluorophenyl)-1-methyl-5-(3-phenyl-1-propenyl)-4-(4-pyridyl)pyrazole] is 136 to 137 °C; for `COc1ccc(CN(C)C(=O)c2[nH]nc(-c3ccc(F)cc3)c2-c2ccncc2)cc1` [Example 73, 3(5)-(4-Fluorophenyl)-5(3)-(N-methyl-4-methoxybenzylaminocarbonyl)-4-(4-pyridyl)pyrazole] it is 225.8 to 228.4 °C.
